Structures can show the parent of a compound that is named as a salt. Where two headings read alike, the source gives them in different places. Each block holds one compound with its values, some of them ahead of it.
What was measured:
[1] = target: MAO-A (Homo sapiens (Human), UniProt P21397); assay: Monoamine oxidase A (MAO-A) selectivity assay; format: biochemical
[2] = target: MAO-B (Homo sapiens (Human), UniProt P27338); assay: Monoamine oxidase B (MAO-B) selectivity assay; format: biochemical
Sequence of MAO-B (P27338 whole entry): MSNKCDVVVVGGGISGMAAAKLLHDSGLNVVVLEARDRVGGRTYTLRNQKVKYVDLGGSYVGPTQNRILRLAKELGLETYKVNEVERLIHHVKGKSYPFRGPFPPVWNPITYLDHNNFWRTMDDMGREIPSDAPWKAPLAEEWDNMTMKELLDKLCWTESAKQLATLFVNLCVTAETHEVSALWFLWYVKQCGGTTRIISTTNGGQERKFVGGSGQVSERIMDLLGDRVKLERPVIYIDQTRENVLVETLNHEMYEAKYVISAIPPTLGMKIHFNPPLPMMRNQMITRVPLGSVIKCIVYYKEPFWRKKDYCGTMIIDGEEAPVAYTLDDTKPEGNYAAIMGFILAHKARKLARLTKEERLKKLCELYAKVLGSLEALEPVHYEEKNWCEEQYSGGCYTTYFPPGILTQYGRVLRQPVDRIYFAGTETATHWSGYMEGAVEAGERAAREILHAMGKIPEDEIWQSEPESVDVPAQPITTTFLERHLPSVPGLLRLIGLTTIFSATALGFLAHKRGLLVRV

[3] = test system: MATN2 in MDA-MB-231 cells; assay: MATN2 level in treated cells; format: cell-based, human
Protocol: All samples were fixed in 4% paraformaldehyde (EMS). Fixed cells were then subjected to incubation with primary antibodies followed by fluorescence secondary antibodies (Life Technologies) to visualise extracellular proteins. Anti-human MATN2 (R&D) antibody was used at 1:100 dilutions. DAPI (Sigma) was used to stain DNA.
Proteins were extracted from cultured cells using cell lysis buffer (Cell Signalling Technology) with the addition of protease and phosphatase inhibitor cocktails (Pierce). Protein concentrations were measured using Pierce 660 nm protein assay reagent and SpectaMax M5 plate reader. […] Separated proteins were transferred to nitrocellulose membranes using a Trans-Blot turbo transfer system (Bio-Rad). Following blocking with Odyssey blocking buffer (Li-COR), membranes were incubated with two primary antibodies of different species at 4° C. over night. Corresponding fluorescence secondary antibodies (Li-COR) of different excitation and emission wavelengths were used to visualize the protein of interest on an Odyssey CLx infrared imaging system (Li-COR). Quantification of band fluorescent intensity was achieved using Li-COR ImageStudio. The following primary antibodies were used, anti-LOX (Sigma), anti-human MATN2 (R&D), anti-EGFR and anti-pY1068EGFR (Cell Signalling Technology), and anti-GAPDH (Millipore).

[4] = test system: TGF beta signalling (pSMAD2); assay: TGF beta signalling (pSMAD2); format: cell-based; conditions: FIG. 15b
[5] = test system: diet-induced obesity in rats; conditions: diet-induced obesity in rats (Miana, Galan et al. 2015); cited from earlier work
[6] = test system: adipose tissue; conditions: Heiberg, Khan et al. 2009; cited from earlier work
[7] = test system: human breast cancer cells; conditions: cited from earlier work
[8] = test system: human cancer cell lines; conditions: several human cancer cell lines; cited from earlier work
[9] = test system: cervical cancer cells; conditions: cervical cancer cells (Yang et al. 2013); cited from earlier work
[10] = test system: human breast cancer cells; conditions: mice treated with conditioned medium in the presence of BAPN; cited from earlier work
[11] = test system: myocardial fibrosis; conditions: mouse model (Rosin, Sopel et al. 2015); cited from earlier work
[12] = test system: experimental pulmonary hypertension; conditions: Nave, Mizikova et al. 2014; cited from earlier work
[13] = test system: angiotensin II-induced cardiac hypertrophy; conditions: in vivo (Ohmura, Yasukawa et al. 2012); cited from earlier work
[14] = test system: Staphylococcus Aureus; conditions: Beerlage, Greb et al. 2013; cited from earlier work
[15] = test system: schistosomiasis; conditions: cited from earlier work
[16] = test system: 3D cell culture; conditions: 3D cell culture (not in 2D) (Schuetze, Roehrig et al. 2015); cited from earlier work
[17] = in vivo; conditions: female, mouse, po, 50 mg/kg
[18] = target: LOXL2 (Homo sapiens (Human), UniProt Q9Y4K0); assay: LOXL2 enzyme activity assay (ROS-Glo; pre-incubation 20 min Method (a), 60 min Method (b), 20 h Method (c)); format: biochemical
Sequence of LOXL2 (Q9Y4K0 26-774, species assumed): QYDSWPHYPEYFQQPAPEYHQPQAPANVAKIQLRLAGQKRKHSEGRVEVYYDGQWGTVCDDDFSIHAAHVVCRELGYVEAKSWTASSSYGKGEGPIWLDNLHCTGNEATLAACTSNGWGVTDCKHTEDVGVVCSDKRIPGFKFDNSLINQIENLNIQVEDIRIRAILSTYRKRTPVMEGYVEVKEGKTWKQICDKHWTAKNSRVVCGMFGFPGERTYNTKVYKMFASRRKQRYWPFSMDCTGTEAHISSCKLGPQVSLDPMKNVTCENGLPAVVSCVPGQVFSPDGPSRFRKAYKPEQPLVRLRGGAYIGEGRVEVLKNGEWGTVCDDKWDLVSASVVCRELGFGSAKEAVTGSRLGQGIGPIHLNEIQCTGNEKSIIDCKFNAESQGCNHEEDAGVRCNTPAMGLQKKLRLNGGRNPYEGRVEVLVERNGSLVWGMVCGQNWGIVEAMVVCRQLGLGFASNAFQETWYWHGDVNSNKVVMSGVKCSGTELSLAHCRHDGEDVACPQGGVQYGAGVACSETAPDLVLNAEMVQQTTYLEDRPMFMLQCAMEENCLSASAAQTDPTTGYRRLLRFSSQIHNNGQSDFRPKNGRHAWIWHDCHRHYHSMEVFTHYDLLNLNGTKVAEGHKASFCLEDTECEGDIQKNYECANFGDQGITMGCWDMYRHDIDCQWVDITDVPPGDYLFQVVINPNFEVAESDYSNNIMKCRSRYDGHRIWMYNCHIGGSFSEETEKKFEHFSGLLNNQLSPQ

[19] = in vivo; conditions: rat, po, 20 mg/kg
[20] = read-out: LOXL2 IC50 b) 1 hr, pre-incubation 1 hr, Method (b)

Sequence of MAO-A (P21397 whole entry): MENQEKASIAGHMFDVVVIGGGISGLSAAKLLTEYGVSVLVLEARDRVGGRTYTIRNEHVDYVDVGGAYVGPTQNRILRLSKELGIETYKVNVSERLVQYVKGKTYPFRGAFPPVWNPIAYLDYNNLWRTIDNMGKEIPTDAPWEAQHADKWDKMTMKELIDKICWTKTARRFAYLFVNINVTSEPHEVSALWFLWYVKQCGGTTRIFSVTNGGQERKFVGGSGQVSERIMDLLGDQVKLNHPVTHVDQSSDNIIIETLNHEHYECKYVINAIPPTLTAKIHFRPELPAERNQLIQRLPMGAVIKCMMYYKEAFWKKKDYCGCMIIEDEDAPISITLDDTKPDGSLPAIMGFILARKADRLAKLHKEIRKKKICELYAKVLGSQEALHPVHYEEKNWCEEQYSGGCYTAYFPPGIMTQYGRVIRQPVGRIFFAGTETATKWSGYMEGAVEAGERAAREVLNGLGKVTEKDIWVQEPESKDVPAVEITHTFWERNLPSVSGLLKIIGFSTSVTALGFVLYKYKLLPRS

IC50 [1]: > 100000 nM
IC50 [2]: > 100000 nM
Compound: CN(C)C(=O)c1cc(-c2ccccc2)cc(S(=O)(=O)c2cnc(CN)s2)c1 [Example 125, 5-((2-(Aminomethyl)thiazol-5-yl)sulfonyl)-N,N-dimethyl-[1,1′-biphenyl]-3-carboxamide Dihydrochloride]

IC50 [18, 20]: 72 nM
Compound: COCn1cc(-c2cc(OC)cc(S(=O)(=O)c3cnc(CN)s3)c2)cn1 [Example 141, (5-((3-Methoxy-5-(1-(methoxymethyl)-1H-pyrazol-4-yl)phenyl)sulfonyl)thiazol-2-yl)methanamine tri-trifluoroacetate]

IC50 [18, 20]: 410 nM
Compound: COc1cc(-c2cn[nH]c2)cc(S(=O)(=O)c2cnc(CN)s2)c1 [Example 142, (5-((3-methoxy-5-(1H-pyrazol-4-yl)phenyl)sulfonyl)thiazol-2-yl)methanamine tri-trifluoroacetate]

IC50 ([18]; pre-incubation 1 hr, Method (b)): 260 nM
Compound: NCc1ncc(S(=O)(=O)c2cc(C(=O)N3CCC(O)C3)cc(-c3ccccc3)c2)s1 (stereo not shown) [Example 149, (5-((2-(Aminomethyl)thiazol-5-yl)sulfonyl)-[1,1′-biphenyl]-3-yl)(3-hydroxypyrrolidin-1-yl)methanone Dihydrochloride]

IC50 [18, 20]: 77 nM
Compound: CCNC(=O)c1cc(-c2ccccc2)cc(S(=O)(=O)c2cnc(CN)s2)c1 [Example 151, 5-((2-(Aminomethyl)thiazol-5-yl)sulfonyl)-N-ethyl-[1,1′-biphenyl]-3-carboxamide Dihydrochloride]

IC50 [18, 20]: 560 nM
Compound: NCc1ncc(S(=O)(=O)c2cc(C(=O)NCCO)cc(-c3ccccc3)c2)s1 [Example 152, 5-((2-(Aminomethyl)thiazol-5-yl)sulfonyl)-N-(2-hydroxyethyl)-[1,1′-biphenyl]-3-carboxamide Dihydrochloride]

IC50 [18, 20]: 150 nM
Compound: CCNC(=O)c1cc(-c2cnn(C)c2)cc(S(=O)(=O)c2cnc(CN)s2)c1 [Example 154]

IC50 [18, 20]: 200 nM
Compound: Cn1cc(-c2cc(C(=O)N3CC[C@@H](O)C3)cc(S(=O)(=O)c3cnc(CN)s3)c2)cn1 [Example 156, (R)-(3-(2-(Aminomethyl)thiazol-5-yl)sulfonyl)-5-(1-methyl-1H-pyrazol-4-yl)phenyl)(3-hydroxypyrrolidin-1-yl)methanone tri hydrochloride]

IC50 [18, 20]: 1200 nM
Compound: CN(C)C(=O)c1cc(-c2cnn(C)c2)cc(S(=O)(=O)c2csc(CN)n2)c1 [Example 164, 3-(2-(Aminomethyl)thiazol-4-yl)sulfonyl)-N,N-dimethyl-5-(1-methyl-1H-pyrazol-4-yl)benzamide Hydrochloride]

Further lines, the compound ahead of its results:

Compound: N#CCCN [BAPN, beta-aminopropionitrile]
inhibition of MAO-A [1]: neither inhibits
inhibition of MAO-B [2]: neither inhibits
MATN2 level ([3]; FIG. 15b): MATN2 reduction
MATN2 level ([3]; MDA-MB-231 cells, at a much higher concentration, FIG. 13): same effect
TGF beta signalling as indicated by pSMAD2 [4]: increased TGF beta signalling
body weight gain [5]: reduces body weight gain
metabolic profile [5]: improves the metabolic profile
local adipose tissue inflammation [6]: reduces local adipose tissue inflammation
metastatic tumour growth ([7]; breast cancer cells in mice (Erler et al, 2006)): can block metastatic tumour growth
invasion and metastasis ([7]; orthotopic human breast tumours or circulating human breast cancer cells, CRC, HCC, LKB1-mutant lung adenocarcinoma, anaplastic thyroid cancer, PDAC in mice): significantly reduced invasion and metastasis
in vitro invasion activity [8]: blocks the in vitro invasion activity
hypoxia-induced invasion and migration mediated by the EMT [9]: can be inhibited
enhanced colonisation of the lung [10]: blocked
myocardial fibrosis [11]: reduces myocardial fibrosis
symptoms of experimental pulmonary hypertension [12]: reduces the symptoms
cardiac hypertrophy [13]: inhibits angiotensin II-induced cardiac hypertrophy
abscesses morphology and collagenisation [14]: influences resulting abscesses morphology and collagenisation
size of the granulomas ([15]; Giboda, Zenka et al. 1992): reduces the size of the granulomas
egg load ([15]; in combination with antiparasitic drug PZQ compared to PZQ alone): reduces the egg load
sensitivity to doxorubicin and paclitaxel [16]: can be restored

Compound: CS(=O)(=O)c1cc(-c2ccccc2)cc(S(=O)(=O)c2ccc(CN)s2)c1 [Example 68, (5-((5-(Methylsulfonyl)-[1,1′-biphenyl]-3-yl)sulfonyl)thiophen-2-yl)methanamine]
MATN2 level ([3]; FIG. 15b): MATN2 reduction

Compound: Cc1ccc(-c2cc(S(=O)(=O)c3ccc(CN)s3)ccc2S(C)(=O)=O)cc1 [Example 82, (5-((4′-Methyl-6-(methylsulfonyl)-[1,1′-biphenyl]-3-yl)sulfonyl)thiophen-2-yl)methanamine Hydrochloride]
IC50 [2]: > 100000 nM
AUC [17]: 12 µM·h
Cmax [17]: 9.4 µM

Compound: NCc1ncc([S+]([O-])c2ccccc2)s1 (stereo not shown) [Example 95, (5-(Phenylsulfinyl)thiazol-2-yl)methanamine Hydrochloride]
IC50 ([18]; read-out: LOXL2 IC50 c) 20 hr, pre-incubation 20 hr, Method (c)): 1000 nM

Compound: NCc1ncc(S(=O)(=O)c2cc3ccccc3c3ccccc23)s1 [Example 97, (5-(Phenanthren-9-ylsulfonyl)thiazol-2-yl)methanamine Hydrochloride]
IC50 [2]: > 100000 nM

Compound: Cn1c(S(=O)(=O)c2ccc3ccccc3c2)cnc1CN [Example 123, (1-Methyl-5-(naphthalen-2-ylsulfonyl)-1H-imidazol-2-yl)methanamine Dihydrochloride]
IC50 [18, 20]: 19000 nM

Compound: NCc1ccc(S(=O)(=O)c2cccc(S(=O)(=O)N3CCCC3c3ccccc3)c2)s1 (stereo not shown) [Example 124, (5-((3-((2-Phenylpyrrolidin-1-yl)sulfonyl)phenyl)sulfonyl)thiophen-2-yl)methanamine Hydrochloride]
IC50 [18, 20]: 120 nM

Compound: NCc1ncc(S(=O)(=O)c2cc(C(=O)O)cc(-c3ccccc3)c2)s1 [Example 126, 5-((2-(Aminomethyl)thiazol-5-yl)sulfonyl)-[1,1′-biphenyl]-3-carboxylic Acid Ditrifluoroacetate]
IC50 [1]: > 100000 nM
IC50 [2]: > 100000 nM
AUC [17]: 413 µM·h
Cmax [17]: 100 µM
AUC [19]: 106 µM·h
Cmax [19]: 35 µM

Compound: CS(=O)(=O)c1cc(S(=O)(=O)c2ccc(CN)s2)ccc1-c1ccccc1 [Example 129, (5-((2-(Methylsulfonyl)-[1,1′-biphenyl]-4-yl)sulfonyl)thiophen-2-yl)methanamine Hydrochloride]
IC50 [18, 20]: 480 nM

Compound: Cn1cc(-c2cc(F)cc(S(=O)(=O)c3cnc(CN)s3)c2)cn1 [Example 131, (5-(3-Fluoro-5-(1-methyl-1H-pyrazol-4-yl)phenyl)sulfonyl)thiazol-2-yl)methanamine Trihydrochloride]
IC50 [1]: > 100000 nM
IC50 [2]: > 100000 nM

Compound: Cn1cc(-c2cc(C(=O)O)cc(S(=O)(=O)c3cnc(CN)s3)c2)cn1 [Example 150, 3-(2-(Aminomethyl)thiazol-5-yl)sulfonyl)-5-(1-methyl-1H-pyrazol-4-yl)benzoic Acid Trihydrochloride]
IC50 [1]: > 100000 nM
IC50 [2]: > 100000 nM
AUC [17]: 38 µM·h
Cmax [17]: 10 µM

Compound: CN(C)C(=O)c1cc(-c2ccccc2)cc(S(=O)(=O)c2csc(CN)n2)c1 [Example 162, 5-((2-(Aminomethyl)thiazol-4-yl)sulfonyl)-N,N-dimethyl-[1,1′-biphenyl]-3-carboxamide Hydrochloride]
IC50 [18, 20]: 310 nM

Source: patent US10807974B2, “Methylamine derivatives as lysysl oxidase inhibitors for the treatment of cancer” (The Institute of Cancer Research: Royal Cancer Hospital, priority 2016, dated 2020)
